The target of the assay is Ras-related protein Rab-2A (Canis lupus familiaris) (UniProt P61105). Briefly: Rab2 wildtype GTP-binding inhibitors, SAR follow-up, biochemical, pyrazoline series, Bodipy-FL-GTP, flow cytometry, multiplex (AID 2045). As to conditions: Bead-based flow cytometry, Bodipy-FL-GTP binding to Rab2; Ki calculated from EC50.
Sequence of Ras-related protein Rab-2A (Canis lupus familiaris) (P61105 whole entry, looked up): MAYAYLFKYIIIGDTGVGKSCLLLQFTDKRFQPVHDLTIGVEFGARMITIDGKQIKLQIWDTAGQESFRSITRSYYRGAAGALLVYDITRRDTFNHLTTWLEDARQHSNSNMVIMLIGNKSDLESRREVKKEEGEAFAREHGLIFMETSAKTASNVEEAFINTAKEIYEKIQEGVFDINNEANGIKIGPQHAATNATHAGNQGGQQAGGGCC

As for `COc1ccc(C2=NN(c3cccc(F)c3)C(c3ccc(OC)cc3)C2)cc1` (configuration not stated), the Ki is 60 nM.

As to `COc1ccc(C2=NN(c3ccc(S(N)(=O)=O)cc3)C(c3ccc(OC)cc3)C2)cc1` (configuration not stated), the Ki was 110 nM.

What is called Ki is a dissociation constant, usually derived from enzyme kinetics or from competition with a known ligand.

Values taken from PubChem BioAssay AID2045 (NMMLSC, 2009).
